Experimental data reported in ChEMBL document CHEMBL4014302, “Studies on anti-hepatoma activity of Annona squamosa L. pericarp extract” (Bioorg Med Chem Lett, 2017).

Experiments:
[1] = test system: SMMC-7721; assay: Induction of apoptosis in human SMMC7721 cells assessed as necrotic cells at half IC50 after 24 hrs by annexin V/PI-staining based flow cytometry (Rvb =1.6 %); type: functional
[2] = test system: SMMC-7721; assay: Cell cycle arrest in human SMMC7721 cells assessed as sub-G1 phase accumulation at half IC50 after 24 hrs by propidium iodide-staining based flow cytometry (reference value: 0.8 %); type: functional
[3] = test system: SMMC-7721; assay: Induction of apoptosis in human SMMC7721 cells assessed as broken nuclei after 24 hrs by Hoechst 33258 staining based fluorescent microscopic method; type: functional, cell-based
[4] = test system: SMMC-7721; assay: Cell cycle arrest in human SMMC7721 cells assessed as G2/M phase accumulation at IC50 after 24 hrs by propidium iodide staining based flow cytometry (reference value: 28.8 %); type: functional
[5] = test system: SMMC-7721; assay: Induction of apoptosis in human SMMC7721 cells assessed as necrotic cells at IC50 after 24 hrs by annexin V/PI-staining based flow cytometry (Rvb =1.6 %); type: functional
[6] = test system: SMMC-7721; assay: Cell cycle arrest in human SMMC7721 cells assessed as S phase accumulation at IC50 after 24 hrs by propidium iodide staining based flow cytometry (reference value: 12.7 %); type: functional
[7] = test system: SMMC-7721; assay: Cell cycle arrest in human SMMC7721 cells assessed as G1 phase accumulation at IC50 after 24 hrs by propidium iodide staining based flow cytometry (reference value: 57.6 %); type: functional
[8] = test system: SMMC-7721; assay: Induction of apoptosis in human SMMC7721 cells assessed as live cells at IC50 after 24 hrs by annexin V/PI-staining based flow cytometry (reference value: 97.3 %); type: functional
[9] = test system: SMMC-7721; assay: Induction of apoptosis in human SMMC7721 cells assessed as early apoptotic cells at half IC50 after 24 hrs by annexin V/PI-staining based flow cytometry (reference value: 0.6 %); type: functional
[10] = test system: SMMC-7721; assay: Induction of apoptosis in human SMMC7721 cells assessed as early apoptotic cells at IC50 after 24 hrs by annexin V/PI-staining based flow cytometry (reference value: 0.6 %); type: functional
[11] = test system: SMMC-7721; assay: Induction of apoptosis in human SMMC7721 cells assessed as live cells at half IC50 after 24 hrs by annexin V/PI-staining based flow cytometry (reference value: 97.3 %); type: functional
[12] = test system: SMMC-7721; assay: Cell cycle arrest in human SMMC7721 cells assessed as G2/M phase accumulation at half IC50 after 24 hrs by propidium iodide-staining based flow cytometry (reference value: 28.8 %); type: functional
[13] = test system: SMMC-7721; assay: Cell cycle arrest in human SMMC7721 cells assessed as sub-G1 phase accumulation at IC50 after 24 hrs by propidium iodide staining based flow cytometry (reference value: 0.8 %); type: functional
[14] = test system: SMMC-7721; assay: Cytotoxicity against human SMMC7721 cells after 48 hrs by MTT assay; type: functional, cell-based; conditions: SMMC-7721, 48 h
[15] = test system: SMMC-7721; assay: Induction of apoptosis in human SMMC7721 cells assessed as condensed nuclei after 24 hrs by Hoechst 33258 staining based fluorescent microscopic method; type: functional, cell-based
[16] = test system: SMMC-7721; assay: Induction of apoptosis in human SMMC7721 cells after 24 hrs by annexin V/PI-staining based flow cytometry; type: functional, cell-based
[17] = test system: SMMC-7721; assay: Cell cycle arrest in human SMMC7721 cells assessed as G1 phase accumulation at half IC50 after 24 hrs by propidium iodide-staining based flow cytometry (reference value: 57.6 %); type: functional
[18] = test system: SMMC-7721; assay: Induction of apoptosis in human SMMC7721 cells assessed as late apoptotic cells at half IC50 after 24 hrs by annexin V/PI-staining based flow cytometry (reference value: 0.5 %); type: functional
[19] = test system: SMMC-7721; assay: Cell cycle arrest in human SMMC7721 cells assessed as S phase accumulation at half IC50 after 24 hrs by propidium iodide-staining based flow cytometry (reference value: 12.7 %); type: functional
[20] = test system: SMMC-7721; assay: Induction of apoptosis in human SMMC7721 cells assessed as late apoptotic cells at IC50 after 24 hrs by annexin V/PI-staining based flow cytometry (reference value: 0.5 %); type: functional
[21] = test system: H22; assay: Antitumor activity against mouse H22 cells implanted in Kunming mouse assessed as tumor weight at 15 mg/kg, po administered once daily for 7 days (reference value: 0.66 +/- 0.18 g); type: functional
[22] = test system: H22; assay: Antitumor activity against mouse H22 cells implanted in Kunming mouse assessed as tumor growth inhibition at 15 mg/kg, po administered once daily for 7 days relative to control; type: functional; conditions: 168 h, read-out: TGI
[23] = test system: SMMC-7721; assay: Induction of apoptosis in human SMMC7721 cells assessed as increase in Bax levels after 24 hrs by Western blot method; type: functional, cell-based
[24] = test system: SMMC-7721; assay: Induction of apoptosis in human SMMC7721 cells assessed as decrease in Bcl2 levels after 24 hrs by Western blot method; type: functional, cell-based
[25] = test system: SMMC-7721; assay: Induction of apoptosis in human SMMC7721 cells assessed as increase in cleaved caspase 3 levels after 24 hrs by Western blot method; type: functional, cell-based
[26] = test system: SMMC-7721; assay: Induction of apoptosis in human SMMC7721 cells assessed as increase in cleaved caspase 9 levels after 24 hrs by Western blot method; type: functional, cell-based
[27] = test system: SMMC-7721; assay: Induction of apoptosis in human SMMC7721 cells assessed as increase in cleaved caspase 8 levels after 24 hrs by Western blot method; type: functional, cell-based

| Compound | Activity [1] | Activity [2] | Activity [3] | Activity [4] | Activity [5] | Activity [6] | Activity [7] | Activity [8] | Activity [9] | Activity [10] | Activity [11] | Activity [12] | Activity [13] | IC50 [14] | Activity [15] | Activity [16] | Activity [17] | Activity [18] | Activity [19] | Activity [20] | further results |
| --- | --- | --- | --- | --- | --- | --- | --- | --- | --- | --- | --- | --- | --- | --- | --- | --- | --- | --- | --- | --- | --- |
| CC1=C[C@@]23CC[C@H]4[C@@](C)(CCC[C@@]4(C)C(=O)O)[C@@H]2CC[C@H]1C3 | 3.4% | 1.1% | Dose-dependent effect | 26.9% | 6.4% | 11% | 60.9% | 75.4% | 7.8% | 10.8% | 85.2% | 25.5% | 0.3% | 45.7 µM | Dose-dependent effect | Dose-dependent effect | 58.5% | 3.5% | 14.8% | 7.4% | – |
| O=c1[nH]cc(F)c(=O)[nH]1 [FLUOROURACIL] | – | – | – | – | – | – | – | – | – | – | – | – | – | – | – | – | – | – | – | – | Activity [21]: 0.36 g; inhibition in vivo at 15 mg/kg [22]: 44.7% |
| C=C1C[C@@]23CC[C@H]4[C@@](C)(CCC[C@@]4(C)C(=O)O)[C@@H]2CC[C@H]1C3 | 3.8% | 1% | Dose-dependent effect | 18% | 2.6% | 7.7% | 73.3% | 79.3% | 10.7% | 12.9% | 80.4% | 26.9% | 1.2% | 67.4 µM | Dose-dependent effect | Dose-dependent effect | 61% | 5.1% | 11.2% | 5.2% | Activity [23]: Dose-dependent effect; Activity [24]: Dose-dependent effect; Activity [25]: Dose-dependent effect; Activity [26]: Dose-dependent effect; Activity [27]: Dose-dependent effect |
